According to patent EP0845217A1, “Inhibiting undesirable taste in oral compositions” (priority 1996, dated 1998):

Legend:
[1] = molecular target: alkaline phosphatase (Bos taurus, UniProt P19111); assay type: biochemical, bovine; conditions: PNPP substrate
Experimental: Enzyme kinetics experiments are done using purified alkaline phosphatase from bovine intestine and the substrate para-nitrophenyl phosphate (PNPP). The formation of colored para-nitrophenol (PNP) from colorless PNPP is followed by measuring the color formation in the presence of inhibitor at several concentrations.
Specifically, enzyme reactions are done in a volume of 200 ul containing 12.5 mU/ml alkaline phosphatase, PNPP at concentrations between 0.5-200 mM, and an inhibitor at concentrations between 0-100 mM. […] Phosphoserine is the natural substrate for this enzyme. The final buffer solution is 0.9 M diethanolamine and 0.5 mM […], pH 9.8, mixed 3:1 (v:v) with water. Reactions are done in a 96-well microtiter plate. The enzyme reaction is initiated by the addition of the enzyme. Each reaction mixture is done in triplicate. The enzyme reaction is monitored by measuring the optical density (OD) at 405 nm, with a reference OD of 490 nm. The OD's are read every 30 seconds over a 15 minute period at room temperature. PNP concentration is determined based on a standard curve correlating OD405/490 vs. PNP concentration. […] The data is then transformed and plotted as the Kmapp / Vmax. vs. inhibitor concentration. From these plots the dissociation constant of the enzyme-inhibitor complex, Ki, is determined. The x-intercept on this plot equals (-Ki). […]

[2] = tested on: acid phosphatase (EC 3.1.3.2) type V; assay: Acid phosphatase enzyme kinetics with PNPP substrate; assay type: biochemical, bovine
Experimental: Enzyme kinetics are done using purified acid phosphatase (EC 3.1.3.2) type V from bovine milk with PNPP as the substrate. The enzyme kinetics experiments are done similarly to the kinetics experiments for alkaline phosphatase, described above.
The buffer is 0.2 M sodium acetate buffer, pH 5.6. Reactions are done in a 96-well microtiter plate. The enzyme reaction is initiated by the addition of enzyme. The enzyme reaction is stopped by the addition of 50 ul of 3 N NaOH to each well. Reaction times are from 0-15 minutes, at 30 second intervals. As described previously, the reaction rate is determined by measurement of the formation of colored product, PNP, which correlates with OD405/490. Acid phosphatase has a linear enzyme reaction rate for 15 minutes with the concentration ranges tested. Calculation of the Ki is done as described above.

alkaline phosphatase, sequence (P19111 20-506): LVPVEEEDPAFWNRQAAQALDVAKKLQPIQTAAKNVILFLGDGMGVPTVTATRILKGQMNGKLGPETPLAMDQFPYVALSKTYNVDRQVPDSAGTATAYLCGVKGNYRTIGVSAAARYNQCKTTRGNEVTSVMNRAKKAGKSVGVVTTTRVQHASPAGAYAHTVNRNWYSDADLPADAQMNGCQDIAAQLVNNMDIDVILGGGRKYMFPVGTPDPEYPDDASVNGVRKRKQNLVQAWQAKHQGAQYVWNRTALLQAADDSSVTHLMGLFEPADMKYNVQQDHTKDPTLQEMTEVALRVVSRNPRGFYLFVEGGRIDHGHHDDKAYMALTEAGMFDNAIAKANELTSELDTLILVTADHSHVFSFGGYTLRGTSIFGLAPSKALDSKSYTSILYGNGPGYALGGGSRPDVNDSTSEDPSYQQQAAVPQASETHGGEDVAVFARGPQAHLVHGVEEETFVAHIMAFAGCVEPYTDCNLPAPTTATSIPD

**Q.** vanillylmonophosphate [VMP] was tested. Which “type of inhibition of alkaline phosphatase” value [1] did it give?
**A.** competitively inhibited

**Q.** What about the “type of inhibition of acid phosphatase” value ([2]; PNPP substrate) of the same substance?
**A.** competitively inhibited

**Q.** And the Ki ([2]; PNPP substrate at room temperature, pH 5.6)?
**A.** 9.16 mM
